In patent US20020052295A1, “Diacyl derivatives of propylene diamine having herbicidal activity” (priority 1999, published 2002):

What was measured:
ABUTH [1] = test: Pre-emergence herbicidal activity on ABUTH (velvetleaf); type: in vivo, Abutilon theophrasti; conditions: lowest tested rate giving 80% or greater inhibition, approx. 14 days after planting and treating, greenhouse
How it was run: (§1)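 Whole-plant pre-emergence assay: compound diluted into 50:50 acetone:water and applied over covered seeds in sterilized soil. Growth at 30/21 °C under mist/subirrigation; inhibition vs untreated at ~14 days, reported as GR80 over rates to typically 1000 g/ha.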

SOLNI [2] = test: Pre-emergence herbicidal activity on SOLNI (black nightshade); type: in vivo, Solanum nigrum; conditions: lowest tested rate giving 80% or greater inhibition, approx. 14 days after planting and treating, greenhouse
How it was run: as §1

SORHA [3] = test: Pre-emergence herbicidal activity on SORHA (johnsongrass, seedling); type: in vivo, Sorghum halepense; conditions: lowest tested rate giving 80% or greater inhibition, approx. 14 days after planting and treating, greenhouse
How it was run: as §1

SETFA [4] = test: Pre-emergence herbicidal activity on SETFA (giant foxtail); type: in vivo, Setaria faberi; conditions: lowest tested rate giving 80% or greater inhibition, approx. 14 days after planting and treating, greenhouse
How it was run: as §1

BRAPP [5] = test: Pre-emergence herbicidal activity on BRAPP (broadleaf signalgrass); type: in vivo, Brachiaria platyphylla; conditions: lowest tested rate giving 80% or greater inhibition, approx. 14 days after planting and treating, greenhouse
How it was run: as §1

ABUTH [6] = test: Post-emergence herbicidal activity on ABUTH (velvetleaf); type: in vivo, Abutilon theophrasti; conditions: post-emergence spray; lowest tested rate with 80% or greater inhibition; about 14 days after treatment
Source text: (§2) All such uses, and the biological activity enabling such uses, are embraced by the term “herbicidal” herein. Tables 15 and 16 summarize results of tests conducted as described below to determine the pre-emergence herbicidal activity, in the form of a GR80 value, of illustrative compounds of this invention. […] Where herbicidal activity was evident but 80% inhibition was not achieved at the highest rate tested (typically 1000 g/ha), an asterisk (*) is shown in the following tables. Herbicidal activity evident in the form of symptoms of phytotoxicity, in the absence of at least 80% inhibition at any rate, is indicated in the tables by “phyto”. A blank cell in the following tables indicates no herbicidal or phytotoxic response at any rate tested.
(§3) In another set of tests, the post-emergence activity of compounds of this invention was evaluated on the cool season species listed above. The following procedure was used.
(§4) A pre-prepared topsoil mixture (described above) was placed in a pot and compacted to a depth of 1.0 to 1.25 cm from the top of the pot. Seeds of each of several monocotyledonous and dicotyledonous annual plant species were placed on top of the soil The seeds were covered with a mixture of 50% topsoil and 50% Rediearth™ in sufficient quantity to level-fill the pots. The pots were then placed on a greenhouse bench and subirrigated as needed until plants growing from the seeds had emerged and reached a suitable growth stage for post-emergence treatment, typically 9 to 14 days after planting.
(§5) A known amount of each test compound dissolved or suspended in an appropriate organic solvent was diluted with a 50:50 mix of acetone and water and applied to the plants by spraying with a standard spray nozzle in a spray volume of 3,100 l/ha at a spray pressure of […] (30 psig). Control plants were not sprayed.
(§6) After treatment the plants were placed in a greenhouse with a 30/21° C. day/night temperature regime and were subsequently watered as needed for growth. Approximately 14 days after treatment, the plants were observed and herbicidal efficacy recorded as percent inhibition by comparison with control plants.

SOLNI [7] = test: Post-emergence herbicidal activity on SOLNI (black nightshade); type: in vivo, Solanum nigrum; conditions: post-emergence spray; lowest tested rate with 80% or greater inhibition; about 14 days after treatment
Source text: as §2, §3, §4, §5, §6

AMARE = test: Post-emergence herbicidal activity on AMARE (redroot pigweed); type: in vivo, Amaranthus retroflexus; conditions: post-emergence spray; lowest tested rate with 80% or greater inhibition; about 14 days after treatment
Source text: as §2, §3, §4, §5, §6

DATST = test: Post-emergence herbicidal activity on DATST (jimsonweed); type: in vivo, Datura stramonium; conditions: post-emergence spray; lowest tested rate with 80% or greater inhibition; about 14 days after treatment
Source text: as §2, §3, §4, §5, §6

CHEAL = test: Post-emergence herbicidal activity on CHEAL (common lambsquarters); type: in vivo, Chenopodium album; conditions: post-emergence spray; lowest tested rate with 80% or greater inhibition; about 14 days after treatment
Source text: as §2, §3, §4, §5, §6

CONAR = test: Post-emergence herbicidal activity on CONAR (field bindweed); type: in vivo, Convolvulus arvensis; conditions: post-emergence spray; lowest tested rate with 80% or greater inhibition; about 14 days after treatment
Source text: as §2, §3, §4, §5, §6

POROL = test: Post-emergence herbicidal activity on POROL (common purslane; table head prints PORAL); type: in vivo, Portulaca oleracea; conditions: post-emergence spray; lowest tested rate with 80% or greater inhibition; about 14 days after treatment
Source text: as §2, §3, §4, §5, §6

ECHCG = test: Post-emergence herbicidal activity on ECHCG (barnyardgrass); type: in vivo, Echinochloa crus-galli; conditions: post-emergence spray; lowest tested rate with 80% or greater inhibition; about 14 days after treatment
Source text: as §2, §3, §4, §5, §6

PANMI = test: Post-emergence herbicidal activity on PANMI (wild proso millet); type: in vivo, Panicum miliaceum; conditions: post-emergence spray; lowest tested rate with 80% or greater inhibition; about 14 days after treatment
SORHA [8] = test: Post-emergence herbicidal activity on SORHA (johnsongrass, seedling); type: in vivo, Sorghum halepense; conditions: post-emergence spray; lowest tested rate with 80% or greater inhibition; about 14 days after treatment
Source text: as §2, §3, §4, §5, §6

SETFA [9] = test: Post-emergence herbicidal activity on SETFA (giant foxtail); type: in vivo, Setaria faberi; conditions: post-emergence spray; lowest tested rate with 80% or greater inhibition; about 14 days after treatment
Source text: as §2, §3, §4, §5, §6

PANDI = test: Post-emergence herbicidal activity on PANDI (fall panicum); type: in vivo, Panicum dichotomiflorum; conditions: post-emergence spray; lowest tested rate with 80% or greater inhibition; about 14 days after treatment
Source text: as §2, §3, §4, §5, §6

SORVU = test: Post-emergence herbicidal activity on SORVU (shattercane); type: in vivo, Sorghum vulgare; conditions: post-emergence spray; lowest tested rate with 80% or greater inhibition; about 14 days after treatment
Source text: as §2, §3, §4, §5, §6

BRAPP [10] = test: Post-emergence herbicidal activity on BRAPP (broadleaf signalgrass); type: in vivo, Brachiaria platyphylla; conditions: post-emergence spray; lowest tested rate with 80% or greater inhibition; about 14 days after treatment
Source text: as §2, §3, §4, §5, §6

DIGSA = test: Post-emergence herbicidal activity on DIGSA (large crabgrass); type: in vivo, Digitaria sanguinalis; conditions: post-emergence spray; lowest tested rate with 80% or greater inhibition; about 14 days after treatment

CC(CNC(=O)c1cccc(C(F)(F)F)c1)NC(=O)c1ccccc1SCCCCl (centres unmarked) [Example 119]
Pre-emergence activity (GR80) on ABUTH (ABUTH [1]): phyto
Pre-emergence activity (GR80) on SOLNI (SOLNI [2]): 1000 g/ha
Pre-emergence activity (GR80) on SORHA (SORHA [3]): phyto
Pre-emergence activity (GR80) on SETFA (SETFA [4]): phyto
Pre-emergence activity (GR80) on BRAPP (BRAPP [5]): phyto
Post-emergence activity (GR80) ABUTH (ABUTH [6]): phyto
Post-emergence activity (GR80) SOLNI (SOLNI [7]): phyto
Post-emergence activity (GR80) AMARE (AMARE): phyto
Post-emergence activity (GR80) DATST (DATST): phyto
Post-emergence activity (GR80) CHEAL (CHEAL): [empty]
Post-emergence activity (GR80) CONAR (CONAR): phyto
Post-emergence activity (GR80) PORAL (POROL): phyto
Post-emergence activity (GR80) ECHCG (ECHCG): [empty]
Post-emergence activity (GR80) PANMI (PANMI): [empty]
Post-emergence activity (GR80) SORHA (SORHA [8]): [empty]
Post-emergence activity (GR80) SETFA (SETFA [9]): [empty]
Post-emergence activity (GR80) PANDI (PANDI): [empty]
Post-emergence activity (GR80) SORVU (SORVU): [empty]
Post-emergence activity (GR80) BRAPP (BRAPP [10]): [empty]
Post-emergence activity (GR80) DIGSA (DIGSA): [empty]
